In patent US10961200B2, “Small molecule inhibitors of lactate dehydrogenase and methods of use thereof” (THE UNITED STATES OF AMERICA, AS REPRESENTED BY THE …, priority 2014, dated 2021):
Like-named read-outs stand apart in the source and are kept apart here.

Molecular target: Human LDHA (Homo sapiens (Human), UniProt P00338)
Experiment: human LDHA primary biochemical assay (resazurin/diaphorase coupled, fluorescence)
Description: Test compounds were placed in a Greiner Bio-One (Monroe, N.C.) 1536-well black solid bottom assay plate. 200 millimolar (mM) Tris HCl, pH 7.4, 100 micromolar […] EDTA and 0.01% TWEEN-20™, final concentration, was used as the assay buffer. The LDHA reagent was 2 nanomolar (nM) Human LDHA (Meridian Life Science, Inc., Memphis, Tenn.), final concentration, in assay buffer.

[1] = read-out: Inhibitory activity IC50
[2] = LDHA inhibitory activity, assay of Example 1, activity level classes

IC50 [1] [nM] | IC50 [2] [nM] | SMILES
1000 to 57000 |  | O=C(O)c1csc(-n2cc(Br)c(-c3cccc(-c4ccccc4)c3)n2)n1 [Compound 21, 2-(3-([1,1′-biphenyl]-3-yl)-4-bromo-1H-pyrazol-1-yl)thiazole-4-carboxylic acid]
1000 to 57000 |  | O=C(O)c1csc(-n2ccc(-c3cccc(-c4ccccc4)c3)n2)n1 [Compound 22, 2-(3-([1,1′-biphenyl]-3-yl)-1H-pyrazol-1-yl)thiazole-4-carboxylic acid]
 | > 57000 | O=C(O)c1csc(-n2cc(-c3ccc(F)c(F)c3)c3cccnc32)n1 [Compound 23, 2-(3-(3,4-difluorophenyl)-1H-pyrrolo[2,3-b]pyridin-1-yl)thiazole-4-carboxylic acid]
100 to 1000 |  | NS(=O)(=O)c1ccc(Oc2c(-c3ccccc3)nn(-c3nc(C(=O)O)cs3)c2O)cc1 [Compound 24, 2-(5-hydroxy-3-phenyl-4-(4-sulfamoylphenoxy)-1H-pyrazol-1-yl)thiazole-4-carboxylic acid]
 | > 57000 | O=C(O)c1csc(-n2nc(-c3ccc(F)c(F)c3)c3cccnc32)n1 [Compound 25, 2-(3-(3,4-difluorophenyl)-1H-pyrazolo[3,4-b]pyridin-1-yl)thiazole-4-carboxylic acid]
100 to 1000 |  | NS(=O)(=O)c1ccc(Cc2cn(-c3nc(C(=O)O)cs3)c3ncccc23)cc1 [Compound 26, 2-(3-(4-sulfamoylbenzyl)-1H-pyrrolo[2,3-b]pyridin-1-yl)thiazole-4-carboxylic acid]
 | > 57000 | CS(=O)(=O)c1ccc(Cc2cn(-c3nc(C(=O)O)cs3)nc2-c2ccccc2)cc1 [Compound 27, 2-(4-(4-(methylsulfonyl)benzyl)-3-phenyl-1H-pyrazol-1-yl)thiazole-4-carboxylic acid]
 | > 57000 | O=C(O)c1csc(-n2cc(Cc3ccc(C(F)(F)F)cc3)c(-c3ccccc3)n2)n1 [Compound 28, 2-(3-phenyl-4-(4-(trifluoromethyl)benzyl)-1H-pyrazol-1-yl)thiazole-4-carboxylic acid]
 | > 57000 | O=C(O)c1csc(-n2cc(-c3cccc(-c4ccccc4)c3)c3cccnc32)n1 [Compound 29, 2-(3-([1,1′-biphenyl]-3-yl)-1H-pyrrolo[2,3-b]pyridin-1-yl)thiazole-4-carboxylic acid]
1000 to 57000 |  | NS(=O)(=O)c1ccc(Cc2cn(-c3nc(C(=O)O)cs3)c3ccc(C(=O)N4CCOCC4)cc23)cc1 [Compound 30, 2-(5-(morpholine-4-carbonyl)-3-(4-sulfamoylbenzyl)-1H-indol-1-yl)thiazole-4-carboxylic acid]
100 to 1000 |  | NS(=O)(=O)c1ccc(Cc2cn(-c3nc(C(=O)O)cs3)c3ccc(F)cc23)cc1 [Compound 31, 2-(5-fluoro-3-(4-sulfamoylbenzyl)-1H-indol-1-yl)thiazole-4-carboxylic acid]
1000 to 57000 |  | NS(=O)(=O)c1ccc(Cc2cn(-c3nc(C(=O)O)cs3)c3ccc(CN4CCOCC4)cc23)cc1 [Compound 32, 2-(5-(morpholinomethyl)-3-(4-sulfamoylbenzyl)-1H-indol-1-yl)thiazole-4-carboxylic acid]
100 to 1000 |  | NS(=O)(=O)c1ccc(Cc2cn(-c3nc(C(=O)O)cs3)c3ccncc23)cc1 [Compound 34, 2-(3-(4-sulfamoylbenzyl)-1H-pyrrolo[3,2-c]pyridin-1-yl)thiazole-4-carboxylic acid]
1000 to 57000 |  | NS(=O)(=O)c1ccc(Cc2nn(-c3nc(C(=O)O)cs3)c3ccccc23)cc1 [Compound 35, 2-(3-(4-sulfamoylbenzyl)-1H-indazol-1-yl)thiazole-4-carboxylic acid]
100 to 1000 |  | NS(=O)(=O)c1ccc(Cc2cn(-c3nc(C(=O)O)cs3)c3ccc(OC4CCOCC4)cc23)cc1 [Compound 36, 2-(3-(4-sulfamoylbenzyl)-5-((tetrahydro-2H-pyran-4-yl)oxy)-1H-indol-1-yl)thiazole-4-carboxylic acid]
1000 to 57000 |  | NS(=O)(=O)c1ccc(Cc2cn(-c3nc(C(=O)O)cs3)c3cc(C(=O)N4CCOCC4)ccc23)cc1 [Compound 37, 2-(6-(morpholine-4-carbonyl)-3-(4-sulfamoylbenzyl)-1H-indol-1-yl)thiazole-4-carboxylic acid]
 | < 100 | Nc1c(Cc2ccc(S(N)(=O)=O)cc2)c(-c2ccc(F)c(F)c2)nn1-c1nc(C(=O)O)cs1 [Compound 38, 2-(5-amino-3-(3,4-difluorophenyl)-4-(4-sulfamoylbenzyl)-1H-pyrazol-1-yl)thiazole-4-carboxylic acid]
 | < 100 | NS(=O)(=O)c1ccc(Cc2c(-c3ccc(F)c(F)c3)nn(-c3nc(C(=O)O)cs3)c2C(F)(F)F)cc1 [Compound 39, 2-(3-(3,4-difluorophenyl)-4-(4-sulfamoylbenzyl)-5-(trifluoromethyl)-1H-pyrazol-1-yl)thiazole-4-carboxylic acid]
 | < 100 | NS(=O)(=O)c1ccc(Cc2c(-c3ccccc3)nn(-c3nc(C(=O)O)cs3)c2C(F)(F)F)cc1 [Compound 44, 2-(3-phenyl-4-(4-sulfamoylbenzyl)-5-(trifluoromethyl)-1H-pyrazol-1-yl)thiazole-4-carboxylic acid]
 | < 100 | NS(=O)(=O)c1ccc(Cc2c(-c3ccccc3)nn(-c3nc(C(=O)O)cs3)c2I)cc1 [Compound 45, 2-(5-iodo-3-phenyl-4-(4-sulfamoylbenzyl)-1H-pyrazol-1-yl)thiazole-4-carboxylic acid]
 | > 57000 | NS(=O)(=O)c1ccc(NCc2c(-c3ccccc3)n[nH]c2O)cc1 [Compound 49, 4-(((5-hydroxy-3-phenyl-1H-pyrazol-4-yl)methyl)amino)benzenesulfonamide]
1000 to 57000 |  | CCOC(=O)c1csc(-n2nc(-c3cccc(-c4ccccc4)c3)c(Cc3ccc(S(N)(=O)=O)cc3)c2N)n1 [Compound 56, ethyl 2-(3-([1,1′-biphenyl]-3-yl)-5-amino-4-(4-sulfamoylbenzyl)-1H-pyrazol-1-yl)thiazole-4-carboxylate]
100 to 1000 |  | Cc1sc(-n2nc(-c3ccccc3)c(Cc3ccc(S(N)(=O)=O)cc3)c2N)nc1C(=O)O [Compound 57, 2-(5-amino-3-phenyl-4-(4-sulfamoylbenzyl)-1H-pyrazol-1-yl)-5-methylthiazole-4-carboxylic acid]
1000 to 57000 |  | CCOC(=O)c1csc(-n2nc(-c3ccccc3)c(Cc3ccc(S(N)(=O)=O)cc3)c2N)n1 [Compound 58, ethyl 2-(5-amino-3-phenyl-4-(4-sulfamoylbenzyl)-1H-pyrazol-1-yl)thiazole-4-carboxylate]
100 to 1000 |  | N#CCc1c(Cc2ccc(S(N)(=O)=O)cc2)c(-c2ccccc2)nn1-c1nc(C(=O)O)cs1 [Compound 59, 2-(5-(cyanomethyl)-3-phenyl-4-(4-sulfamoylbenzyl)-1H-pyrazol-1-yl)thiazole-4-carboxylic acid]
 | 100 to 1000 | COc1c(Cc2ccc(S(N)(=O)=O)cc2)c(-c2ccc(F)c(F)c2)nn1-c1nc(C(=O)O)cs1 [Compound 60, 2-(3-(3,4-difluorophenyl)-5-methoxy-4-(4-sulfamoylbenzyl)-1H-pyrazol-1-yl)thiazole-4-carboxylic acid]
100 to 1000 |  | CCOc1c(Cc2ccc(S(N)(=O)=O)cc2)c(-c2ccc(F)c(F)c2)nn1-c1nc(C(=O)O)cs1 [Compound 61, 2-(3-(3,4-difluorophenyl)-5-ethoxy-4-(4-sulfamoylbenzyl)-1H-pyrazol-1-yl)thiazole-4-carboxylic acid]
 | > 57000 | O=C(O)c1csc(-n2nc(-c3ccc(F)c(F)c3)cc2CO)n1 [Compound 64, 2-(3-(3,4-difluorophenyl)-5-(hydroxymethyl)-1H-pyrazol-1-yl)thiazole-4-carboxylic acid]
 | > 57000 | Cc1nn(-c2nc(C(=O)O)cs2)c(O)c1Cc1ccc(S(N)(=O)=O)cc1 [Compound 66, 2-(5-hydroxy-3-methyl-4-(4-sulfamoylbenzyl)-1H-pyrazol-1-yl)thiazole-4-carboxylic acid]

SMILES | IC50 [1] [nM] | IC50 [2] [nM]
NS(=O)(=O)c1ccc(Cc2cn(-c3nc(C(=O)O)cs3)nc2-c2ccccc2)cc1 [Compound 19, 2-(3-phenyl-4-(4-sulfamoylbenzyl)-1H-pyrazol-1-yl)thiazole-4-carboxylic acid] | < 100 | 
NS(=O)(=O)c1ccc(Oc2cn(-c3nc(C(=O)O)cs3)nc2-c2ccccc2)cc1 [Compound 33, 2-(3-phenyl-4-(4-sulfamoylphenoxy)-1H-pyrazol-1-yl)thiazole-4-carboxylic acid] | < 100 | 
NS(=O)(=O)c1ccc(Cc2cn(-c3nc(C(=O)O)cs3)nc2-c2ccc(F)c(F)c2)cc1 [Compound 41, 2-(3-(3,4-difluorophenyl)-4-(4-sulfamoylbenzyl)-1H-pyrazol-1-yl)thiazole-4-carboxylic acid] |  | < 100
N#Cc1c(Cc2ccc(S(N)(=O)=O)cc2)c(-c2ccccc2)nn1-c1nc(C(=O)O)cs1 [Compound 50] |  | < 100
O=C(O)c1csc(-n2nc(-c3ccccc3)cc2C(F)(F)F)n1 [Compound 62, 2-(3-phenyl-5-(trifluoromethyl)-1H-pyrazol-1-yl)thiazole-4-carboxylic acid] | 1000 to 57000 | 
O=C(O)c1csc(-n2nc(-c3cccc(-c4ccccc4F)c3)cc2O)n1 [Compound 63, 2-(3-(2′-fluoro-[1,1′-biphenyl]-3-yl)-5-hydroxy-1H-pyrazol-1-yl)thiazole-4-carboxylic acid] | > 57000 | 
NC(=O)c1ccc(Cc2c(-c3cccc(-c4ccccc4)c3)nn(-c3nc(C(=O)O)cs3)c2O)cc1 [Compound 67, 2-(3-([1,1′-biphenyl]-3-yl)-4-(4-carbamoylbenzyl)-5-hydroxy-1H-pyrazol-1-yl)thiazole-4-carboxylic acid] |  | > 57000
O=C(O)c1ccc(Cc2c(-c3cccc(-c4ccccc4)c3)nn(-c3nc(C(=O)O)cs3)c2O)cc1 [Compound 68, 2-(3-([1,1′-biphenyl]-3-yl)-4-(4-carboxybenzyl)-5-hydroxy-1H-pyrazol-1-yl)thiazole-4-carboxylic acid] | > 57000 | 
